Activity calls are given as the source filed them. For most assays here, no stated cut-off is given here; in the data, actives have a measured EC50 and inactives only a lower limit.
Columns and labels:
[1] = target: T1, Rac GTPase-activating protein 1 (Homo sapiens, UniProt Q9H0H5); assay: blockers of MgcRacGAP-driven Rac1 GTP hydrolysis – biochemical, ADP Hunter fluorescence, primary and confirmatory, confirmation (AID 624330); type: functional
T1 sequence (Q9H0H5 whole entry): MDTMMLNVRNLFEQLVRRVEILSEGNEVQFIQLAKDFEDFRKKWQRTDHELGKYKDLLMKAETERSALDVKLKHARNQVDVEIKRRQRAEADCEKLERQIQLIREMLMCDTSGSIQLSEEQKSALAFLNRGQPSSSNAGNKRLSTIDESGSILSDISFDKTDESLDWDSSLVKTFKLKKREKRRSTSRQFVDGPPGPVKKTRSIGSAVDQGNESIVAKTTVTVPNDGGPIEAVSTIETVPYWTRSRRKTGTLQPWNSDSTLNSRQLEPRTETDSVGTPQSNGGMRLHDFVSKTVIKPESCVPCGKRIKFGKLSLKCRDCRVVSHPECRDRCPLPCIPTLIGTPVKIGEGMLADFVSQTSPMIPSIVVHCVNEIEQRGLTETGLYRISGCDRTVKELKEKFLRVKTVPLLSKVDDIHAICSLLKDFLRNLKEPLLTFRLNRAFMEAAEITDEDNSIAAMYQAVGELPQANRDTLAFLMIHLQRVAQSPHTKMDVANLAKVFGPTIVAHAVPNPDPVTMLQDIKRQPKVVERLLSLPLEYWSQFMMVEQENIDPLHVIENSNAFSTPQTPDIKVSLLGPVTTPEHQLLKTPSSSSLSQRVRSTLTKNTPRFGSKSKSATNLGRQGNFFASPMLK

[2] = target: T2, Corticotropin-releasing factor receptor 2/Corticotropin-releasing factor-binding protein (Homo sapiens, UniProt P24387+Q13324); assay: Dose Response confirmation of uHTS hits for small molecule antagonists of the CRF-binding protein and CRF-R2 receptor complex.; type: functional; settings: read-out: IC50_Mean
T2 sequence (Q13324 whole entry): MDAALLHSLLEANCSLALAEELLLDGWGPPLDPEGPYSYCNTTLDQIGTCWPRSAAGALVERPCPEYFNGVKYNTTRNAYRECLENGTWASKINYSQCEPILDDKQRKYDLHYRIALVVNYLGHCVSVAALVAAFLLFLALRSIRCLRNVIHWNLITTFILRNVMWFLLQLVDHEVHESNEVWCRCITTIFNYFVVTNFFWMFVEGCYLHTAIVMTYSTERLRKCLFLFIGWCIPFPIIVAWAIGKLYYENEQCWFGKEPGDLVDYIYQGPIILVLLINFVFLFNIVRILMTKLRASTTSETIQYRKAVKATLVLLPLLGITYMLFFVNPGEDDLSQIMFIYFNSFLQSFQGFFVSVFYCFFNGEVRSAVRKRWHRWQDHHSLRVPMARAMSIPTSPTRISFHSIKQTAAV
T2 sequence (P24387 whole entry): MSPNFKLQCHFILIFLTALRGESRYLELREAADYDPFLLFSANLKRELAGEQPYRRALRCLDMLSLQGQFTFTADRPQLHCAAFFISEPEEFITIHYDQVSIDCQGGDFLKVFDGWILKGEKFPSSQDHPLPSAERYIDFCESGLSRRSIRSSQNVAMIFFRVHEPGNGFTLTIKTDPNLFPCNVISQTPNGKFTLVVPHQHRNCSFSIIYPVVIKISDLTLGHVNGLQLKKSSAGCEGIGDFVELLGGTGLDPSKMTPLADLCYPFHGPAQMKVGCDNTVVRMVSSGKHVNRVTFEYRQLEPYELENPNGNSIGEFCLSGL

[3] = target: T2, Corticotropin-releasing factor receptor 2/Corticotropin-releasing factor-binding protein; assay: activators of CRF receptor 2 with binding protein – uHTS hits, confirmation (AID 602473); type: functional; settings: read-out: EC50_Mean
[4] = target: T3, Heat shock factor protein 1 (Mus musculus, UniProt P38532); assay: decrease of HSF1-responsive luciferase luminescence – cell-based, NIH3T3, dose retest, confirmation (AID 2382); type: functional;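 further: NIH3T3 fibroblasts with HSF1-driven luciferase reporter stressed by proteasome inhibitor MG132; luminescence from HSF1-driven luciferase expression after 8 hours of MG132 stress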
T3 sequence (P38532 whole entry): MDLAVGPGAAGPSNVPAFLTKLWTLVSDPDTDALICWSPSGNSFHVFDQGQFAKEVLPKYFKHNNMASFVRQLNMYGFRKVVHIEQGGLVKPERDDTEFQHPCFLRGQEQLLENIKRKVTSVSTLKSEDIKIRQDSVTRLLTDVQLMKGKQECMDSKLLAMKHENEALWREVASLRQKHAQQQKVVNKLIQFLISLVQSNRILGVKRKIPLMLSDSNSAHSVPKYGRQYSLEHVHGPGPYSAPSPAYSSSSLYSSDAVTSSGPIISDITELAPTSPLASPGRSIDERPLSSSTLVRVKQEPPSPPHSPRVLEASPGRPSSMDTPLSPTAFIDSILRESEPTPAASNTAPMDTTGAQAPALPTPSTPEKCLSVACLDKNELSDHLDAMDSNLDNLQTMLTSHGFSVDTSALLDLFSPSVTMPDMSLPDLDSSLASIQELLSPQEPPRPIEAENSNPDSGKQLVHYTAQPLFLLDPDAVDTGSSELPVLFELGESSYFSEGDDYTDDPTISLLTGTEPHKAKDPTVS

[5] = target: FAD-linked sulfhydryl oxidase ALR (Homo sapiens, UniProt P55789); assay: ALR-catalysed DTT oxidation blockers – biochemical, H2O2 detection, luminescence, cherry-pick, dose response (AID 493248)
[6] = tested on: H4; assay: Luminescence Cell-Based Dose Response HTS to Identify Activators of 5'UTR Stem-Loop Driven Prion Protein mRNA Translation in H4 Neuroglioblastoma Cells. [Related pubchem assays: 1829 (Project Summary), 1814 (Primary HTS)]; type: functional; settings: Homo sapiens
[7] = Luminescence Cell-Based Dose Response HTS to Identify Activators of Luciferase Translation or Activity in H4 […] Cells. [Related pubchem assays: 1829 (Project Summary), 1814 (Primary HTS)]; type: functional
[8] = Luminescence Cell-Based Dose Response HTS to Identify Inhibitors of 5'UTR Stem-Loop Driven Prion Protein mRNA Translation in H4 Neuroglioblastoma Cells. [Related pubchem assays: 1827 (Project Summary), 1813 (Primary HTS)]; type: functional
[9] = alpha-synuclein stem-loop luciferase translation blockers – H4 neuroglioma cells, luminescence, confirmation (AID 1988); type: functional, cell-based
[10] = luciferase reporter signal suppression in cells – H4 neuroglioma cells, luminescence, dose response (AID 1990); type: functional, cell-based

Sequence of FAD-linked sulfhydryl oxidase ALR (P55789 whole entry): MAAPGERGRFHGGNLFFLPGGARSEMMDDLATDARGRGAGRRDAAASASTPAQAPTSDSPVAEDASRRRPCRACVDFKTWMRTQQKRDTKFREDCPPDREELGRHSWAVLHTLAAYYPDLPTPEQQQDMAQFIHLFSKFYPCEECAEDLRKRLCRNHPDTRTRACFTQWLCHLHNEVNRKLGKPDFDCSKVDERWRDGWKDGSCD

CCN(Cc1ccncc1)Cc1ccc(OC)c(OC)c1
IC50 [1]: 190 µM (active)

Cc1cccc(N(C(=O)c2sc(C)nc2C)C(C(=O)NCC2CCCO2)c2ccccc2)c1 (stereo not drawn)
IC50 [2]: > 47.1 µM (inactive)
EC50 [3]: > 53 µM (inactive)

Cc1nc2sccn2c(=O)c1S(=O)(=O)Nc1ccc(N2CCOCC2)c(Cl)c1
EC50 [4]: 92.2 µM (active)

O=C(COC(=O)c1cc2ccccc2cc1O)NC1CCCCC1
IC50 [2]: > 47.1 µM (inactive)
EC50 [3]: > 53 µM (inactive)

Cc1ccn2c(NC(C)(C)C)c(-c3cccs3)nc2c1
AC50 [5]: 1.58 µM (active)

CC1Oc2ccccc2N(CC(=O)NCc2ccccc2)C1=O (stereo not drawn)
EC50 [4]: > 195 µM (not active)

CC(C(=O)NC(=O)NC1CCCCC1)N1CCN(c2ccc(O)cc2)CC1 (stereo not drawn)
IC50 [1]: 55.5 µM (active)

CC(C)(C)NC(=O)COC(=O)c1ccccc1Nc1ccc(SC(F)F)cc1
EC50 [6]: 12.8 µM (active)
EC50 [7]: 23.9 µM (active)

CCCCCN(C(=O)CCC(=O)OCC(=O)c1c(C)cc(C)cc1C)c1c(N)n(CCCC)c(=O)[nH]c1=O
IC50 [2]: > 47.1 µM (inactive)
EC50 [3]: > 53 µM (inactive)

CCCOc1ccc(N2C(=O)CC(N3CCC(c4nc5ccccc5o4)CC3)C2=O)cc1 (stereo not drawn)
EC50 [8]: > 60 µM (not active)
EC50 [9]: > 120 µM (not active)
EC50 [10]: > 120 µM (not active)

COc1ccc(/C=N/NC(=O)c2cc[n+]([O-])cc2)cc1O
IC50 [1]: 38.2 µM (active)

CCc1c(C)sc(NC(=O)CSc2nc3c(c(C(F)(F)F)n2)CCc2ccccc2-3)c1C#N
EC50 [8]: > 120 µM (not active)
EC50 [9]: 18.8 µM (active)
EC50 [10]: > 120 µM (not active)

CCN(CC)c1ccc(/C=N\NC(N)=O)cc1
AC50 [5]: 0.825 µM (active)
IC50 [1]: 50.7 µM (active)

Cc1ccn2c(NC3CCCCC3)c(C(C)C)nc2c1
AC50 [5]: 2.82 µM (active)

Cc1cccc(Oc2ccc3c(c2)cc(C(=O)O)n3C)c1
AC50 [5]: 0.211 µM (active)

O=C(NNC(=O)c1oc2ccccc2c1-n1cccc1)c1ccco1
IC50 [2]: > 47.1 µM (inactive)
EC50 [3]: > 53 µM (inactive)

O=C(O)CCNC(=O)OCC1c2ccccc2-c2ccccc21
IC50 [2]: > 47.1 µM (inactive)
EC50 [3]: > 53 µM (inactive)

COc1cc2ccccc2cc1C(=O)Nc1ccc(N2CCN(C)CC2)cc1
EC50 [6]: > 120 µM (not active)

COc1ccc(CNC(=O)CN(C)S(=O)(=O)c2ccc3c(c2)n(C)c(=O)c(=O)n3C)cc1
IC50 [2]: > 47.1 µM (inactive)
EC50 [3]: > 53 µM (inactive)

CC(C)(C)OC(=O)N1CCN(c2ccc(CNC(=O)c3ccc(Cl)cc3)cc2)CC1
IC50 [2]: > 47.1 µM (inactive)
EC50 [3]: > 53 µM (inactive)

O=C(c1ccc(F)cc1)C1CCN(Cc2ccccc2F)CC1
IC50 [2]: > 47.1 µM (inactive)
EC50 [3]: > 53 µM (inactive)

CCc1ccc(/C=N/NC(=O)c2cc(C3CC3)nc3ccc(Br)cc23)s1
EC50 [8]: 9.75 µM (active)
EC50 [9]: 6.9 µM (active)
EC50 [10]: > 120 µM (not active)

Source: ChEMBL document CHEMBL1201862, “PubChem BioAssay data set” (2004)
